Test results: ChEMBL document CHEMBL5649166, “RIP3 induces apoptosis independent of pronecrotic kinase activity” (Mol Cell, 2014)

Legend:
[1] = molecular target: Serine/threonine-protein kinase Nek7 (Homo sapiens) (UniProt Q8TDX7); experiment: Inhibition of human NEK7 using casein as substrate at 1 uM in presence of 32P-ATP by Hotspot assay relative to control; values are per cent of control
[2] = molecular target: Casein kinase II subunit alpha (Homo sapiens) (UniProt P68400); experiment: Inhibition of human CK2a using RRRDDDSDDD as substrate at 1 uM in presence of 32P-ATP by Hotspot assay relative to control; values are per cent of control
[3] = molecular target: Dual specificity tyrosine-phosphorylation-regulated kinase 1B (Homo sapiens) (UniProt Q9Y463); experiment: Inhibition of human DYRK1B using RRRFRPASPLRGPPK as substrate at 1 uM in presence of 32P-ATP by Hotspot assay relative to control; values are per cent of control
[4] = molecular target: Tyrosine-protein kinase BTK (Homo sapiens) (UniProt Q06187); experiment: Inhibition of human BTK using poly[Glu:Tyr] (4:1) as substrate at 1 uM in presence of 32P-ATP by Hotspot assay relative to control; values are per cent of control
[5] = molecular target: Proto-oncogene tyrosine-protein kinase ROS (Homo sapiens) (UniProt P08922); experiment: Inhibition of human ROS/ROS1 using KKKSPGEYVNIEFG as substrate at 1 uM in presence of 32P-ATP by Hotspot assay relative to control; values are per cent of control
[6] = molecular target: Ribosomal protein S6 kinase alpha-4 (Homo sapiens) (UniProt O75676); experiment: Inhibition of human MSK2/RPS6KA4 using GRPRTSSFAEG as substrate at 1 uM in presence of 32P-ATP by Hotspot assay relative to control; values are per cent of control
[7] = molecular target: T1, Protein kinase C iota type (Homo sapiens) (UniProt P41743); experiment: Inhibition of human PKCiota using ERMRPRKRQGSVRRRV as substrate at 1 uM in presence of 32P-ATP by Hotspot assay relative to control; values are per cent of control
T1 sequence (whole entry): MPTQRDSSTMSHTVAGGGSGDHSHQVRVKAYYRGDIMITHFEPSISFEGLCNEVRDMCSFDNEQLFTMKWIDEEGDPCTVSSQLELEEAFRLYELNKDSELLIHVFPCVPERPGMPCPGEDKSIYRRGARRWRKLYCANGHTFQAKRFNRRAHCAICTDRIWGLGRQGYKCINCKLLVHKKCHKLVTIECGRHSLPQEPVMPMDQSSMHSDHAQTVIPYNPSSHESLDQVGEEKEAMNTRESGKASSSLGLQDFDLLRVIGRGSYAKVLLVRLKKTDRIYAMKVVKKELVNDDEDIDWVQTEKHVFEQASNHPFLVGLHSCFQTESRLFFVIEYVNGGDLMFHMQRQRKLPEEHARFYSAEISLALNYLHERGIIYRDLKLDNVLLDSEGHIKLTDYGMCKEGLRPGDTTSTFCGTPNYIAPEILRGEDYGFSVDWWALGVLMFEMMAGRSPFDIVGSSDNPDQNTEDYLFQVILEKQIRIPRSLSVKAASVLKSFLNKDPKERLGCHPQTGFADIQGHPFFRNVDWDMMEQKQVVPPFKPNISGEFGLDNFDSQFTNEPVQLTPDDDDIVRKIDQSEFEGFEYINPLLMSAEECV

[8] = molecular target: T2, Ephrin type-A receptor 8 (Homo sapiens) (UniProt P29322); experiment: Inhibition of human EPHA8 using poly[Glu:Tyr] (4:1) as substrate at 1 uM in presence of 32P-ATP by Hotspot assay relative to control; values are per cent of control
T2 sequence (whole entry): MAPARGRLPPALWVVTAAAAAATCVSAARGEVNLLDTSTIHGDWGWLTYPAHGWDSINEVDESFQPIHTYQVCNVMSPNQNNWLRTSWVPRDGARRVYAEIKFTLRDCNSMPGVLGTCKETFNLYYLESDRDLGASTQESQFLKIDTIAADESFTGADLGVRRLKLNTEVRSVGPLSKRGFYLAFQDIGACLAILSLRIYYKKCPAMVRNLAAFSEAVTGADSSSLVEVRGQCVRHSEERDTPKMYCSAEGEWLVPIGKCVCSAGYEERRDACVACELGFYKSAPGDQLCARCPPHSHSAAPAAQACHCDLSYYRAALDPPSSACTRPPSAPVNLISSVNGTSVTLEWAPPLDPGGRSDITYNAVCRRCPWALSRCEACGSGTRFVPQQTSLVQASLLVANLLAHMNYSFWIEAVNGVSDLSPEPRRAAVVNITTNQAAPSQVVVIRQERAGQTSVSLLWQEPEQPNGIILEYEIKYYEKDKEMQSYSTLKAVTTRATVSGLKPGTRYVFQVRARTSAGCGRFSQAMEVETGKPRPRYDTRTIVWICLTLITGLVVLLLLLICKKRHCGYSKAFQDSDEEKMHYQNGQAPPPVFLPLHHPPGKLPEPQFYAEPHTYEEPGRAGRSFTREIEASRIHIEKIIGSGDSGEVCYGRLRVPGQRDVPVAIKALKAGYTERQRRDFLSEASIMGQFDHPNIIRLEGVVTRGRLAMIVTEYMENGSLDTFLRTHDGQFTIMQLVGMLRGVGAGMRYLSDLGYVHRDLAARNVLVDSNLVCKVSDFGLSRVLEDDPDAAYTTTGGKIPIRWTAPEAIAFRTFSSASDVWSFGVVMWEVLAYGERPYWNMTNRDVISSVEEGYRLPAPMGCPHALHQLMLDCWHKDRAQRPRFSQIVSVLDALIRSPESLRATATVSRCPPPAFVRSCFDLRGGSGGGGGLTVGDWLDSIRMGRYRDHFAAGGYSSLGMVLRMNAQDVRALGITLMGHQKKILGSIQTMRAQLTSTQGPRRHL

[9] = molecular target: T3, Testis-specific serine/threonine-protein kinase 2 (Homo sapiens) (UniProt Q96PF2); experiment: Inhibition of human TSSK2 using KKKVSRSGLYRSPSMPENLNRPR as substrate at 1 uM in presence of 32P-ATP by Hotspot assay relative to control; values are per cent of control
T3 sequence (whole entry): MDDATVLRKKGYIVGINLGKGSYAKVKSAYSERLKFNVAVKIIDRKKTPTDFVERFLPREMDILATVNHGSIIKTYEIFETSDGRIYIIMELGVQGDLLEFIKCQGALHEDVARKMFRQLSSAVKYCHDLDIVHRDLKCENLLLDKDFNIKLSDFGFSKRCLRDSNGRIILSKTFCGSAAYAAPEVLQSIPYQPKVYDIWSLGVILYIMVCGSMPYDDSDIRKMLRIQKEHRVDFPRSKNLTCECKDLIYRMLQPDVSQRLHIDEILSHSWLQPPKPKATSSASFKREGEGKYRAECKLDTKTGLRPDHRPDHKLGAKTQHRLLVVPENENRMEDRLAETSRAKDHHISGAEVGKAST

Chain of Serine/threonine-protein kinase Nek7 (Homo sapiens) (Q8TDX7 whole entry, looked up): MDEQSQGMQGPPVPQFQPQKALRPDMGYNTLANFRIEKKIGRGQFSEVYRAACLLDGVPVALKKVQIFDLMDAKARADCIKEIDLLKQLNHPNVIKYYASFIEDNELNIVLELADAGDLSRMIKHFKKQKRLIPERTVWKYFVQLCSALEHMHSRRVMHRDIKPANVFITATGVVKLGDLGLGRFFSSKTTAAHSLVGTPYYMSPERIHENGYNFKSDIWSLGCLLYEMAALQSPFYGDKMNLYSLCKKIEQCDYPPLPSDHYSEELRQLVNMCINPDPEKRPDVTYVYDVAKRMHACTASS
Chain of Ribosomal protein S6 kinase alpha-4 (Homo sapiens) (O75676 whole entry, looked up): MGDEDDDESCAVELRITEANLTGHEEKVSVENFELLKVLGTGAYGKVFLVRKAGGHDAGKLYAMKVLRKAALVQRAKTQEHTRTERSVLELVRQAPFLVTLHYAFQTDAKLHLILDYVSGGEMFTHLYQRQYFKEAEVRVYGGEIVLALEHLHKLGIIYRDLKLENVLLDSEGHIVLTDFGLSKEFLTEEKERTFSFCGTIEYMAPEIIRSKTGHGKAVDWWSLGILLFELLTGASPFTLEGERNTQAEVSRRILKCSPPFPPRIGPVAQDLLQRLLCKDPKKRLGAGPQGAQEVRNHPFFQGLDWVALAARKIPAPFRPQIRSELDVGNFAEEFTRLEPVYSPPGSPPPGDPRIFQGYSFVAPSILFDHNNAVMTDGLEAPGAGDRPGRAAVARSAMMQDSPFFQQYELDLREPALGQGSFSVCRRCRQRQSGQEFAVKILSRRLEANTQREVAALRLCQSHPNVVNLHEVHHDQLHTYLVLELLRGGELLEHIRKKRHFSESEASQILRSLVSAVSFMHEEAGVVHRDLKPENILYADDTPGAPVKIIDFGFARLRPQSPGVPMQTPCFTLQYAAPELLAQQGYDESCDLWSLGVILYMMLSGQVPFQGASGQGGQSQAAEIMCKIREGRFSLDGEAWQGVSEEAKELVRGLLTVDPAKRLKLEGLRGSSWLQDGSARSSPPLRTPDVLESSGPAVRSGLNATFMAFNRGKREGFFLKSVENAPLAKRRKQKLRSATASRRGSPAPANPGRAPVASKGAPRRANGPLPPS
Chain of Proto-oncogene tyrosine-protein kinase ROS (Homo sapiens) (P08922 whole entry): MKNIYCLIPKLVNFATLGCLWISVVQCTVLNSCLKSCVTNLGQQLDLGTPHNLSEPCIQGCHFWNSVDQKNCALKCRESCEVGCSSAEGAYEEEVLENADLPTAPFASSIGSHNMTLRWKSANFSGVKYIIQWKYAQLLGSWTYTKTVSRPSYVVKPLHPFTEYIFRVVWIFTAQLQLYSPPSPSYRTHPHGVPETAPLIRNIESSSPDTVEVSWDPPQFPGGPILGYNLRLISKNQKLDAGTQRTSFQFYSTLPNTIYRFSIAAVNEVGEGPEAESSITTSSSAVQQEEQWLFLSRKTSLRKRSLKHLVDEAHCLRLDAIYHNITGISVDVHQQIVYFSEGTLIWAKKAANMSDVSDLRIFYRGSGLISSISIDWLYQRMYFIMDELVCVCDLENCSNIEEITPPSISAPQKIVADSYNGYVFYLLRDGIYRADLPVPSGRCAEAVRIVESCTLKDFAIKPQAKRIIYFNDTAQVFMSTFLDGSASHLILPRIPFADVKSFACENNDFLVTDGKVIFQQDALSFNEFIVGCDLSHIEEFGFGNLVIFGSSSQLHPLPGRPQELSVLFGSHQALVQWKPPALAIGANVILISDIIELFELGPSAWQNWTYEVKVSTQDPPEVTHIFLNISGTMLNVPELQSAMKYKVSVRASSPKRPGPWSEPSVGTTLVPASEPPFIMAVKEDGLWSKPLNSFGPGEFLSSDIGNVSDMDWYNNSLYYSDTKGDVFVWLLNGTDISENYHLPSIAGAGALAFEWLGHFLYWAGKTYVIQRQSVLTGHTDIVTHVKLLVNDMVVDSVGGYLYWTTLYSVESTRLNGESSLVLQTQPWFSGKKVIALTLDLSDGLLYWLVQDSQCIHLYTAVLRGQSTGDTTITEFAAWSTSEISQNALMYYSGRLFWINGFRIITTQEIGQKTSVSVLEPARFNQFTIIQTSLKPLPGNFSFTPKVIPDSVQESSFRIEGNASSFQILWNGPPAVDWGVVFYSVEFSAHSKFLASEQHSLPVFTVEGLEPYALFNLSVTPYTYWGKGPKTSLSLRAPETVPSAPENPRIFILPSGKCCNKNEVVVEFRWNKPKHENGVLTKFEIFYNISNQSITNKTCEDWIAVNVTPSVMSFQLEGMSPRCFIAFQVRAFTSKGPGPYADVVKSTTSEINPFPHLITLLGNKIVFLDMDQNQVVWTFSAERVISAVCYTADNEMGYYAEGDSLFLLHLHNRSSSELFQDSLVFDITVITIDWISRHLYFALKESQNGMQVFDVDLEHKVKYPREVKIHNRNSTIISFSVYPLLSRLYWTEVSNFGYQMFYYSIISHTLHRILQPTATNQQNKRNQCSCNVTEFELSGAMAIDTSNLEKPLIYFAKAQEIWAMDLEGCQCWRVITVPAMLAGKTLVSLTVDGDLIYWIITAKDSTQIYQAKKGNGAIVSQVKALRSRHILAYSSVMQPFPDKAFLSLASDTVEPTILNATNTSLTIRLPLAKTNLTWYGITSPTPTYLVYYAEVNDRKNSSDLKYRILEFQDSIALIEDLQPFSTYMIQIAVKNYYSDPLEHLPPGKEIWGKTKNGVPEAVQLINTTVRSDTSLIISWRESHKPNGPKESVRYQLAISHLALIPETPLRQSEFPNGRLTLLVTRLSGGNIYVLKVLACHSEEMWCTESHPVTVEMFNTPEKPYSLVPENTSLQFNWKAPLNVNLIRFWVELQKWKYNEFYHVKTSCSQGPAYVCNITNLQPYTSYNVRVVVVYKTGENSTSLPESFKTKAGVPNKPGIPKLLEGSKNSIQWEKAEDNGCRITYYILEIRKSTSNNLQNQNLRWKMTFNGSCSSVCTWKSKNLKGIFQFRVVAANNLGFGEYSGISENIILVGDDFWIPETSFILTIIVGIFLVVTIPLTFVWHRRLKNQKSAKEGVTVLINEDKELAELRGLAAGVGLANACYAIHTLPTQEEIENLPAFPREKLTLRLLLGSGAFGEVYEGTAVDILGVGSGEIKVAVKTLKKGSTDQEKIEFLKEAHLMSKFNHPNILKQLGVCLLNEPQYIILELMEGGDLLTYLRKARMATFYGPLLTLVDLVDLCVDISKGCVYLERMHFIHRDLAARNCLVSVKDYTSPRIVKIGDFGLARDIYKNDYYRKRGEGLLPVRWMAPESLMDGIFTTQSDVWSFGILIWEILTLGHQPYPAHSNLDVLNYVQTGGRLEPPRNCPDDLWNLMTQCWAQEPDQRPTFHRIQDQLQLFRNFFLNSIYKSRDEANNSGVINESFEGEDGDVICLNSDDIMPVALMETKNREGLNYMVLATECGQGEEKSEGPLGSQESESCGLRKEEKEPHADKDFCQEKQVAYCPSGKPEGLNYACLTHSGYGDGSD
Chain of Casein kinase II subunit alpha (Homo sapiens) (P68400 whole entry, looked up): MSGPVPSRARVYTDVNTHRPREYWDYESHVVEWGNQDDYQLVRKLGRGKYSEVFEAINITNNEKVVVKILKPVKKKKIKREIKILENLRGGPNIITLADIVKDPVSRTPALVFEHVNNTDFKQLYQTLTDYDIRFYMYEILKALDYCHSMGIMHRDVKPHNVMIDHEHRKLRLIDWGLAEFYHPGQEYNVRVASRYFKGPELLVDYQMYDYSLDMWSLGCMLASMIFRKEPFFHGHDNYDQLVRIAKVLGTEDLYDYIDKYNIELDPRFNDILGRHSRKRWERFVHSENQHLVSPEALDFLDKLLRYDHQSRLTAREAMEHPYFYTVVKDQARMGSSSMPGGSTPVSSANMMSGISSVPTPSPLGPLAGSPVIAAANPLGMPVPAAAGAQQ
Chain of Dual specificity tyrosine-phosphorylation-regulated kinase 1B (Homo sapiens) (Q9Y463 whole entry, looked up): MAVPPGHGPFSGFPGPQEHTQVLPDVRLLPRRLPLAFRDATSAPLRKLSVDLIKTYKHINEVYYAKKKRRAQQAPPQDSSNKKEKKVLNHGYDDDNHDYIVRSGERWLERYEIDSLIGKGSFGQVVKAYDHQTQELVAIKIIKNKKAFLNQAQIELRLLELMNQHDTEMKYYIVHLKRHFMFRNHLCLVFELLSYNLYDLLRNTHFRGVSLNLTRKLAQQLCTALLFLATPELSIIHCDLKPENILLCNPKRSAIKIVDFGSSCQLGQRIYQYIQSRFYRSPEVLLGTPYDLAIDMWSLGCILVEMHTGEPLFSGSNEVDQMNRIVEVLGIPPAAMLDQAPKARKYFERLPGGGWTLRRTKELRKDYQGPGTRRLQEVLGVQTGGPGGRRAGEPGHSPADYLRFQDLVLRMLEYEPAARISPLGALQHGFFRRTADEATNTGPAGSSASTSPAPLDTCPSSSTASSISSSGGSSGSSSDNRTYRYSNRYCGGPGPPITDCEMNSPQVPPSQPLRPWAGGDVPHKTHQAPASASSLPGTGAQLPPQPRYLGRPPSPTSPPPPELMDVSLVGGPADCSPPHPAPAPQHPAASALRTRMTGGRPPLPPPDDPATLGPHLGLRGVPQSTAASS
Chain of Tyrosine-protein kinase BTK (Homo sapiens) (Q06187 whole entry): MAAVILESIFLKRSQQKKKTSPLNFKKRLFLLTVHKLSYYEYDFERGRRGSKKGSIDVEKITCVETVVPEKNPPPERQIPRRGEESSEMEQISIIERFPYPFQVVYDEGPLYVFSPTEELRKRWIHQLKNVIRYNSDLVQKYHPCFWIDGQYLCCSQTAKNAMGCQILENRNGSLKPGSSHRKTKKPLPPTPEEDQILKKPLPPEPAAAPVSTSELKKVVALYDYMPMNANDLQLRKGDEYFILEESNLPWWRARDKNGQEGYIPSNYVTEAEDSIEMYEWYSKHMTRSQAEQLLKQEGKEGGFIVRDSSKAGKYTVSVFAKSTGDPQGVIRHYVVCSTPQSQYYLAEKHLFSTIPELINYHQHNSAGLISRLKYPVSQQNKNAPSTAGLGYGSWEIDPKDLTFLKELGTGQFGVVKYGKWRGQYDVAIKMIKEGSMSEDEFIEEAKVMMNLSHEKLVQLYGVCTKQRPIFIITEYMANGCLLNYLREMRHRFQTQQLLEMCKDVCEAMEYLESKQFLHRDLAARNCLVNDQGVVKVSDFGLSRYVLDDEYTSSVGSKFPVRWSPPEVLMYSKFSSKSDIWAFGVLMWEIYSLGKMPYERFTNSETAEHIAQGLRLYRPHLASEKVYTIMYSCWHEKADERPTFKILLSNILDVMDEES

Row | SMILES | residual activity [1] | residual activity [2] | residual activity [3] | residual activity [4] | residual activity [5] | residual activity [6] | residual activity [7] | residual activity [8] | residual activity [9]
1 | CC(C)S(=O)(=O)c1ccc2nccc(Nc3ccc4scnc4c3)c2c1 | 95.6% | 92.4% | 100% | 30.4% | 89.6% | 95.4% | 83% | 42.8% | 102%
2 | Cc1cc(-c2cnc(N)c3c(-c4ccc5scnc5c4)csc23)n(C)n1 | 94.9% | 54.7% | 99.5% | 58% | 78.1% | 99.3% | 102% | 62.7% | 97.2%
3 | CNC(=O)c1ccc2c(c1)ncn2-c1ccc(CC(=O)OC(C)(C)C)cc1 | 91.5% | 75.6% | 98.4% | 79.8% | 99% | 96.9% | 93.8% | 96.7% | 98.9%
